Assay results from US7691848B2, “Pyrrolobenzodiazepine arylcarboxamides and derivatives thereof as follicle-stimulating hormone receptor antagonists” (Wyeth, priority 2005, dated 2010).
Counter-ions that a name gives are not always drawn.

Assays:
human FSH receptor = biological target: T1, human FSH receptor (Homo sapiens, UniProt P23945); experiment: Follicle-Stimulating Hormone Receptor-Dependent Cre-Luciferase Reporter Gene Assay (CHO FSH-R 6CRE-Luc cells); assay type: cell-based; conditions: for IC50: dose-response format, in presence of EC50 of purified human FSH
T1 construct: host or cells: CHO-K1 (CHO FSH-R 6CRE-Luc, 1D7 cells)
T1 sequence (P23945 18-695): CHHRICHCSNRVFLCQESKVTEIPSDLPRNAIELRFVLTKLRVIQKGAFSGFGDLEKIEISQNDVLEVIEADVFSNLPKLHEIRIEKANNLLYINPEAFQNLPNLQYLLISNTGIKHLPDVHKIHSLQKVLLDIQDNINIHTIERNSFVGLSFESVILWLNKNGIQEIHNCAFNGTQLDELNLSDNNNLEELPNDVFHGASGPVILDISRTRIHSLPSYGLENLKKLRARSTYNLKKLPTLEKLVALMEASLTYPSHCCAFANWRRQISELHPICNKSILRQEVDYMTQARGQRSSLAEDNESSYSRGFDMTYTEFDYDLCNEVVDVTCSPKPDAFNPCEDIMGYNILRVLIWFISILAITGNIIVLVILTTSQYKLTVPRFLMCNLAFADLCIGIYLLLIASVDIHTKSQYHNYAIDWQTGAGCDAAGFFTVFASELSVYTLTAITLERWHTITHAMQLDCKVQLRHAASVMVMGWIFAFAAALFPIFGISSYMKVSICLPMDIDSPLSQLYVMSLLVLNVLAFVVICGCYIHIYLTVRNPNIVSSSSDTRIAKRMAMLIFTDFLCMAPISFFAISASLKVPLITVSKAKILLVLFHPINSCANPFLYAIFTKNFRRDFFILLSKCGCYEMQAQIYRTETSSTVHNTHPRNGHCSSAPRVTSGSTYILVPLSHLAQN
Text: Follicle-Stimulating Hormone Receptor-Dependent Cre-Luciferase Reporter Gene Assay for the Identification of Follicle-Stimulating Hormone (FSH) Antagonists
A Chinese hamster ovarian cell line that stably produces the human FSH receptor and a luciferase reporter gene regulated by cAMP response elements was used to identify and determine the relative potencies of human FSH receptor antagonists. See for example, Kelton, C. A., et al. Mol. Cell. Endocrinol. 89:141-151 (1992), Tilly, J. L., et al. Endocrinology 131:799-806(1992), and George, S. E., et al. J. Biomol. Screening 2:235-240 (1997).
Compound Vehicle: Stock compounds were solubilized in an appropriate vehicle, e.g., phosphate buffered saline (PBS) or dimethyl sulfoxide (DMSO), at 30 mM. The compounds were subsequently diluted in DMSO to working dilutions of 1 and 20 or 30 mM for 2-dose testing format and 1 μM-10 mM for dose-response format. The DMSO dilutions were diluted 500-fold in sterile growth medium [D-MEM/F-12 (GIBCO/BRL; Grand Island, NY) containing 15 mM HEPES, 2 mM 1-glutamine, pyridoxine hydrochloride, phenol red and 5% FetalClone® II (HyClone Laboratories, Inc; Logan, Utah), 0.2% DMSO, 100 units penicillin G/ml, and 100 μg streptomycin sulfate/ml (GIBCO/BRL)]. The concentration of the vehicle in each of the compound dilutions was the same.
Positive Controls: Purified human FSH (>98%) was purchased from Cortex Biochem, Inc. (San Leandro, Calif.) and 3-[(2S*,5R*)-5-{[2-(1H-Indol-3-yl)-ethylcarbamoyl]-methyl}-4-oxo-2-(5-phenylethynyl-thiophen-2-yl)-thiazolidin-3-yl]-benzamide (an FSH-R thiazolidinone antagonist) was prepared by processes described by R. A. Scheuerman et al. in U.S. Pat. No. 6,426,357 (Affymax).
The CHO FSH-R 6CRE-Luc cells (1D7 cells) were obtained from Affymax (Palo Alto, Calif.). These Chinese hamster ovary cells (CHO-K1) were engineered genetically to stably express the recombinant human FSH receptor gene and a luciferase reporter gene under the regulation of 6 copies of a cAMP response element. The cells were plated one day prior to treatment into 96-well white opaque plates at a density of 50,000 cells/100 μl/well in growth medium. On the day of treatment, the growth medium was removed from the wells by aspiration and 50 μl of fresh growth medium was added to each well. The cells were incubated at 37° C. in a humidified incubator with 5% CO2/95% air.
The treated cells were incubated for 4 hours at 37° C. in a humidified incubator with 5% CO2/95% air. At the end of the incubation period, luciferase activity was measured by chemiluminescence using a commercially available kit (LucScreen, Tropix, Inc., Bedford, Mass.) according to the manufacturer's specifications, except that Buffer 1 and Buffer 2 were mixed together in equal proportion prior to the addition of 100 μl of the combined reagents to each well. Chemiluminescence was detected using a luminometer (EG & G Berthold Microlumat LB 96 P, Wallac, Gaithersburg, Md.) with chemiluminescence measured for 1 sec/well. Background luminescence was measured for each well prior to the addition of the LucScreen reagent.
In the 96-well 2-dose format, each compound was tested in duplicate at each dose. […] One plate was used to test a maximum of 22 compounds.
The EC50 of purified human FSH alone was tested in triplicate with each test compound. The doses chosen to test each compound were extrapolated from the initial 2-dose screening process. Along with the test compounds, purified human FSH also was tested in a dose response (0.03, 0.1, 0.3, 1, 3, 10, and 30 ng/ml) for a positive control and quality control. One plate was used for 3 test compounds and the FSH positive control.
Luciferase activity is expressed as relative light units/sec/well. Luciferase activity in antagonist was compared to the appropriate negative and positive controls. For 2-dose testing, results are reported as luciferase activity and are expressed as percent inhibition of the response obtained from the EC50 of FSH.

[1] = 2-dose format, concentration in parentheses 30 μM, inhibition of the response to EC50 of FSH

Structure (SMILES)	inhibition at 30 µM (human FSH receptor; [1]) [%]	melting point [°C]	IC50 (human FSH receptor) [µM]	CRE % inhibition (μM) (human FSH receptor; [1])
Cc1cc(-c2ccccc2C)ccc1NC(=O)c1ccc2n1Cc1ccccc1N(C(=O)COc1ccc(Cl)cc1)C2 [Example 79]	13	159 to 161	–	–
O=C(NCc1cccc(C(F)(F)F)c1)c1ccc2n1Cc1ccccc1N(C(=O)CSc1ccc(Br)cc1)C2 [Example 85, 10-{[(4-BROMOPHENYL)THIO]ACETYL}-N-[3-(TRIFLUOROMETHYL)BENZYL]-10,11-DIHYDRO-5H-PYRROLO[2,1-C][1,4]BENZODIAZEPINE-3-CARBOXAMIDE]	24	102	–	–
COc1cc(C(=O)N2Cc3ccc(C(=O)NCc4ccc(Cl)cc4)n3Cc3ccccc32)ccc1-c1ccccc1C [Example 43, N-(4-CHLOROBENZYL)-10-[(2-METHOXY-2′-METHYL-1,1′-BIPHENYL-4-YL)CARBONYL]-10,11-DIHYDRO-5H-PYRROLO[2,1-C][1,4]BENZODIAZEPINE-3-CARBOXAMIDE]	56	218 to 219	–	–
COc1cc(C(=O)N2Cc3ccc(C(=O)NCc4ccc(C)cc4C)n3Cc3ccccc32)ccc1-c1ccccc1C [Example 46, N-(2,4-DIMETHYLBENZYL)-10-[(2-METHOXY-2′-METHYL-1,1′-BIPHENYL-4-YL)CARBONYL]-10,11-DIHYDRO-5H-PYRROLO[2,1-C][1,4]BENZODIAZEPINE-3-CARBOXAMIDE]	44	161 to 162	–	–
O=C(NCCc1ccc(O)cc1)c1ccc2n1Cc1ccccc1N(C(=O)COc1ccc(Cl)cc1)C2 [Example 68, 10-[(4-CHLOROPHENOXY)ACETYL]-N-[2-(4-HYDROXYPHENYL)ETHYL]-10,11-DIHYDRO-5H-PYRROLO[2,1-C][1,4]BENZODIAZEPINE-3-CARBOXAMIDE]	–	206 to 207	13.2	–
Cc1ccccc1-c1ccc(C(=O)N2Cc3ccc(C(=O)NCc4ccc(N(C)C)cc4)n3Cc3ccccc32)cc1C [Example 91]	–	154 to 155	> 30	–
Cc1ccccc1-c1ccc(C(=O)N2Cc3ccc(C(=O)NCCCCc4ccccc4)n3Cc3ccccc32)cc1C [Example 56]	–	129 to 131	–	–
COc1ccccc1-c1ccc(C(=O)N2Cc3ccc(C(=O)NCc4c(Cl)cccc4Oc4ccccc4)n3Cc3ccccc32)cc1 [Example 3, N-(2-CHLORO-6-PHENOXYBENZYL)-10-[(2′-METHOXY-1,1′-BIPHENYL-4-YL)CARBONYL]-10,11-DIHYDRO-5H-PYRROLO[2,1-C][1,4]BENZODIAZEPINE-3-CARBOXAMIDE]	8	–	–	–
COc1cc(C(=O)N2Cc3ccc(C(=O)NCCc4cccc(Cl)c4)n3Cc3ccccc32)ccc1-c1ccccc1C [Example 51, N-[2-(3-CHLOROPHENYLETHYL]-10-[(2-METHOXY-2′-METHYL-1,1′-BIPHENYL-4-YL)CARBONYL]-10,11-DIHYDRO-5H-PYRROLO[2,1-C][1,4]BENZODIAZEPINE-3-CARBOXAMIDE]	–	–	> 30	–
Cc1cc(Cl)ccc1OCC(=O)N1Cc2ccc(C(=O)NCc3ccc4c(c3)OCO4)n2Cc2ccccc21 [Example 76]	–	–	–	15(30) %
Cc1ccccc1-c1ccc(C(=O)N2Cc3ccc(C(=O)NCc4ccc(O)cc4)n3Cc3ccccc32)cc1C [Example 9]	37	–	–	–
Cc1ccccc1-c1ccc(C(=O)N2Cc3ccc(C(=O)NCc4ccc(CN)cc4)n3Cc3ccccc32)cc1C [Example 11]	–	–	14.9	–
Cc1ccccc1-c1ccc(C(=O)N2Cc3ccc(C(=O)NCc4cccc(CN)c4)n3Cc3ccccc32)cc1C [Example 12]	–	–	11.9	–
Cc1ccccc1-c1ccc(C(=O)N2Cc3ccc(C(=O)NCCc4ccc5c(c4)OCO5)n3Cc3ccccc32)cc1C (as salt: hydrochloride) [Example 33]	–	154 to 157	–	–
COc1cc(C(=O)N2Cc3ccc(C(=O)NCCc4ccc5c(c4)OCO5)n3Cc3ccccc32)ccc1-c1ccccc1C [Example 62, N-[2-(1,3-BENZODIOXOL-5-YL)ETHYL]-10-[(2-METHOXY-2′-METHYL-1,1′-BIPHENYL-4-YL)CARBONYL]-10,11-DIHYDRO-5H-PYRROLO[2,1-C][1,4]BENZODIAZEPINE-3-CARBOXAMIDE]	–	178 to 179	–	–
